Active and inactive are the calls of the source. The calls are words filed in the database; no cut-off is given here. Where a SMILES comes first, the peptide text is derived from it. The star is where a group is joined. Cbz = O=C(OCc1ccccc1)*
What was measured:
[1] = molecular target: T1, Nuclear factor erythroid 2-related factor 2 (Rattus norvegicus) (UniProt O54968); test: Inhibition of Nrf2 degradation in rat PC-12 cells assessed as accumulation of ubiquitinated Nrf2 at 10 uM incubated for 6 hrs by Western blot analysis; type: cell-based
T1 sequence (whole entry): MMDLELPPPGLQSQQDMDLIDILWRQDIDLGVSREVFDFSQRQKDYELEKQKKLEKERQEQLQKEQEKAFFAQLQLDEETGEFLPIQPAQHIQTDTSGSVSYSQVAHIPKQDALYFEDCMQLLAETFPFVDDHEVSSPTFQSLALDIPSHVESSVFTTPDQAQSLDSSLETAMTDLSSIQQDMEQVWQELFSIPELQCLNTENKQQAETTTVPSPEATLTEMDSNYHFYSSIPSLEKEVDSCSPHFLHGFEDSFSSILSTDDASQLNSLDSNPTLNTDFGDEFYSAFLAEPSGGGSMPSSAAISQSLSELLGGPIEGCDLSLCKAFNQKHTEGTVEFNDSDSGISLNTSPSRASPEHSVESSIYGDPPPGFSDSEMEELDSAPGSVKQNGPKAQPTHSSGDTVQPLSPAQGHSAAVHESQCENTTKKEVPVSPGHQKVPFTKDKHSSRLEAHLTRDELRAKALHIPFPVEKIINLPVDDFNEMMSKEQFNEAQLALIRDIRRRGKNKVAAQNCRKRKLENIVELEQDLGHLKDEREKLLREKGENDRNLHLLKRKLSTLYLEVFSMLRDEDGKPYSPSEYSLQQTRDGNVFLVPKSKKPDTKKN

[2] = test system: HepG2-ARE-C8; test: Activation of Nrf2-ARE pathway in human HepG2-ARE-C8 cells assessed as fold upregulation of ARE-inducing luciferase activity at 10 uM measured after 24 hrs by luciferase reporter gene assay; type: cell-based; conditions: filed as activator
[3] = test system: HepG2-ARE-C8; test: Activation of Nrf2-ARE pathway in human HepG2-ARE-C8 cells assessed as fold upregulation of ARE-inducing luciferase activity at 20 uM measured after 24 hrs by luciferase reporter gene assay; type: cell-based; conditions: filed as activator
[4] = test system: HepG2-ARE-C8; test: Activation of Nrf2-ARE pathway in human HepG2-ARE-C8 cells assessed as fold upregulation of ARE-inducing luciferase activity at 40 uM measured after 24 hrs by luciferase reporter gene assay; type: cell-based; conditions: filed as activator
[5] = test system: HepG2-ARE-C8; test: Activation of Nrf2-ARE pathway in human HepG2-ARE-C8 cells assessed as fold upregulation of ARE-inducing luciferase activity at 80 uM measured after 24 hrs by luciferase reporter gene assay; type: cell-based; conditions: filed as activator
[6] = test system: HepG2-ARE-C8; test: Activation of Nrf2-ARE pathway in human HepG2-ARE-C8 cells assessed as fold upregulation of ARE-inducing luciferase activity at 160 uM measured after 24 hrs by luciferase reporter gene assay; type: cell-based; conditions: filed as activator
[7] = test system: THP-1; test: Antiinflammatory activity in PMA-differentiated and LPS-stimulated human THP-1 cell model assessed as inhibition of NLRP3 inflammasome-driven IL-1beta production at 15 uM incubated for 24 hrs followed by LPS stimulation for 3 hrs and ATP addition for 1 hr by ELISA; type: functional; parameters: scale not given: the % may be the effect or the level left
[8] = test system: THP-1; test: Antiinflammatory activity in PMA-differentiated and LPS-stimulated human THP-1 cell model assessed as inhibition of NLRP3 inflammasome-driven IL-1beta production at 30 uM incubated for 24 hrs followed by LPS stimulation for 3 hrs and ATP addition for 1 hr by ELISA; type: functional; parameters: scale not given: the % may be the effect or the level left
[9] = test system: THP-1; test: Antiinflammatory activity in PMA-differentiated and LPS-stimulated human THP-1 cell model assessed as inhibition of NLRP3 inflammasome-driven IL-1beta production at 45 uM incubated for 24 hrs followed by LPS stimulation for 3 hrs and ATP addition for 1 hr by ELISA; type: functional; parameters: scale not given: the % may be the effect or the level left
[10] = Cytotoxicity against human THP-1 cells assessed as reduction in cell viability measured after 24 hrs by MTT assay; type: toxicity, cell-based
[11] = molecular target: 26S proteasome non-ATPase regulatory subunit 11 (Homo sapiens, UniProt O00231); test: Binding affinity to biotinylated recombinant Rpn6 (unknown origin) assessed as dissociation constant by biolayer interferometry analysis
Chain of 26S proteasome non-ATPase regulatory subunit 11 (O00231 whole entry): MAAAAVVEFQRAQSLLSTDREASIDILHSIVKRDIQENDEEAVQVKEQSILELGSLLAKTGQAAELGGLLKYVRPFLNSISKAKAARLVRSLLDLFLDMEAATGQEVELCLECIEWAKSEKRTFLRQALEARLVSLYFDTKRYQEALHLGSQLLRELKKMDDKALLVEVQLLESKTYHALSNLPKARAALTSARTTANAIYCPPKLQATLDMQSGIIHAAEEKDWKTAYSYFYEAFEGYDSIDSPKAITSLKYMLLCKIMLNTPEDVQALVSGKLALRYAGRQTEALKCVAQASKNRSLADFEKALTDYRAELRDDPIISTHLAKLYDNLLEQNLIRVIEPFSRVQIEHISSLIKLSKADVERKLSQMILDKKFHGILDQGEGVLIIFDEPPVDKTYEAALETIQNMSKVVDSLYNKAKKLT

[12] = molecular target: T1, Nuclear factor erythroid 2-related factor 2 (Rattus norvegicus); test: Inhibition of Nrf2 degradation in rat PC-12 cells assessed as accumulation of ubiquitinated Nrf2 at 40 uM incubated for 6 hrs by Western blot analysis; type: cell-based
[13] = molecular target: T1, Nuclear factor erythroid 2-related factor 2 (Rattus norvegicus); test: Inhibition of Nrf2 degradation in rat PC-12 cells assessed as accumulation of ubiquitinated Nrf2 at 40 uM incubated for 6 hrs in presence of proteasome inhibitor MG132 by Western blot analysis; type: cell-based
[14] = molecular target: T1, Nuclear factor erythroid 2-related factor 2 (Rattus norvegicus); test: Inhibition of Nrf2 degradation in rat PC-12 cells assessed as increase in ubiquitinated Nrf2 at 40 uM incubated for 6 hrs by co-immunoprecipitation based Western blot analysis; type: cell-based
[15] = molecular target: T1, Nuclear factor erythroid 2-related factor 2 (Rattus norvegicus); test: Inhibition of Nrf2 degradation in rat PC-12 cells assessed as increase in ubiquitinated Nrf2 at 40 uM incubated for 6 hrs in presence of proteasome inhibitor MG132 by co-immunoprecipitation based Western blot analysis; type: cell-based
[16] = molecular target: T1, Nuclear factor erythroid 2-related factor 2 (Rattus norvegicus); test: Activation of Nrf2 in rat PC-12 cells assessed as upregulation of HO-1 protein expression measured after 24 hrs by Western blot analysis; type: cell-based; conditions: filed as activator, dose 10-40 µM, DDE = dose-dependent effect
[17] = molecular target: T1, Nuclear factor erythroid 2-related factor 2 (Rattus norvegicus); test: Activation of Nrf2 in rat PC-12 cells assessed as upregulation of NQO1 protein expression measured after 24 hrs by Western blot analysis; type: cell-based; conditions: filed as activator, dose 10-40 µM, DDE = dose-dependent effect
[18] = molecular target: T1, Nuclear factor erythroid 2-related factor 2 (Rattus norvegicus); test: Activation of Nrf2 in rat PC-12 cells assessed as upregulation of Nrf2 protein expression measured after 24 hrs by Western blot analysis; type: cell-based; conditions: filed as activator, dose 10-40 µM, DDE = dose-dependent effect
[19] = molecular target: T1, Nuclear factor erythroid 2-related factor 2 (Rattus norvegicus); test: Activation of Nrf2 in rat PC-12 cells assessed as reduction of Nrf2 in cytoplasm at 20 uM measured after 4 hrs by western blot analysis; type: cell-based; conditions: filed as activator
[20] = molecular target: T1, Nuclear factor erythroid 2-related factor 2 (Rattus norvegicus); test: Activation of Nrf2 in rat PC-12 cells assessed as upregulation of Nrf2 in nucleus at 20 uM measured after 4 hrs by western blot analysis; type: cell-based; conditions: filed as activator
[21] = test system: PC-12; test: Induction of cell membrane permeability in rat PC-12 cells at 60 uM measured after 10 hrs by fluorescence microscopic analysis; type: cell-based
[22] = molecular target: 26S proteasome non-ATPase regulatory subunit 11 (Rattus norvegicus) (UniProt F1LMZ8); test: Binding affinity to recombinant Rpn6 in rat PC-12 cells at 60 uM measured after 12 hrs by DAPI staining based fluorescence microscope assay; type: cell-based; conditions: filed as activator
Chain of 26S proteasome non-ATPase regulatory subunit 11 (Rattus norvegicus) (F1LMZ8 whole entry): as the sequence (O00231 whole entry) above

[23] = test system: PC-12; test: Cytoprotective activity against H2O2-induced oxidative damage in rat PC-12 assessed as increase in cell viability preincubated for 24 hrs followed by H2O2 stimulation for 3 hrs by MTT assay; type: functional, cell-based; conditions: dose 5-80 µM, DDE = dose-dependent effect
[24] = molecular target: 26S proteasome non-ATPase regulatory subunit 11 (Rattus norvegicus) (UniProt F1LMZ8); test: Binding affinity to biotinylated recombinant Rpn6 in rat PC-12 cells at 100 to 200 uM incubation for overnight by pull-down assay based SDS-PAGE analysis; type: cell-based; conditions: filed as activator, dose 100-200 µM, DDE = dose-dependent effect

Structure (SMILES)	fold change (FC) [2]	fold change (FC) [3]	fold change (FC) [4]	fold change (FC) [5]	fold change (FC) [6]	Activity [7] [%]	Activity [8] [%]	Activity [9] [%]	IC50 at 24 h [10] [µM]	other results
CC(C)C[C@@H](C=O)NC(=O)[C@H](CC(C)C)NC(=O)[C@H](CC(C)C)NC(=O)OCc1ccccc1 (Cbz-Leu-Leu-Leu-aldehyde)	–	–	–	–	–	–	–	–	–	Activity [1]: Active
CCNC(=O)CCCCCNC(C)=O	1.17	1.17	1.41	1.22	1.22	-2.73	3.52	2.89	> 100	–
Fc1ccc(-c2nc(-c3ccc4nc[nH]c4c3)no2)cc1	4.53	4.19	7.5	19.3	31.5	87.24	98.39	102.6	> 100	Kd [11]: 8.53 µM; Activity [12]: Active; Activity [13]: Active; Activity [14]: Active; Activity [15]: Active
Cc1ccc(-c2noc(-c3ccc(F)cc3)n2)cn1	2.08	2.75	7.14	31.7	29.6	49.86	53.91	85.46	> 100	Activity [16]: Dde; Activity [17]: Dde; Activity [18]: Dde; Activity [19]: Active; Activity [20]: Active
O=C(O)CCCC[C@@H]1SC[C@@H]2NC(=O)N[C@@H]21	1.55	1.12	1.18	1.45	1.55	–	–	–	–	–
Cc1ccc(-c2noc(-c3ccc(F)cc3NC(=O)CCCCCNC(=S)Nc3ccc4c(c3)C(=O)OC43c4ccc(O)cc4Oc4cc(O)ccc43)n2)cn1	2.62	2.28	2.3	2.71	6.42	67.9	77.63	89.34	> 100	Activity [21]: Active; Activity [22]: Active
Cc1ccc(-c2noc(-c3ccc(F)cc3NC(=O)CCCCCNC(=O)CCCC[C@@H]3SC[C@@H]4NC(=O)N[C@@H]43)n2)cn1	4.96	5.59	6.69	7.1	11.8	33.81	64.61	97.72	> 100	Activity [16]: Dde; Activity [17]: Dde; Activity [18]: Dde; Activity [23]: Dde; Kd [11]: 1.38 µM; Activity [24]: Dde; Activity [19]: Active; Activity [20]: Active
CC(C)(C)c1cc(O)ccc1O [E319]	2.94	3.13	2.98	12	15.9	50.88	58.58	98.29	> 100	–
